From publication PMC2430034, “Structural Development Studies of Subtype-Selective Ligands for Peroxisome Proliferator-Activated Receptors (PPARs) Based on the 3,4-Disubstituted Phenylpropanoic Acid Scaffold as a Versatile Template” (PPAR Research, 2008)
Like-named read-outs stand apart in the source and are kept apart here.

Legend:
Format in all cases: cell-based
[1] = molecular target: T1, PPARα (Homo sapiens, UniProt Q07869); assay: PPARα-GAL4 chimeric receptor transactivation in HEK-293 cells; settings: PPAR-GAL4 chimeric receptors, transiently transfected HEK-293 cells; ia = inactive at 10 μM
T1 sequence (Q07869 200-468 limits assumed): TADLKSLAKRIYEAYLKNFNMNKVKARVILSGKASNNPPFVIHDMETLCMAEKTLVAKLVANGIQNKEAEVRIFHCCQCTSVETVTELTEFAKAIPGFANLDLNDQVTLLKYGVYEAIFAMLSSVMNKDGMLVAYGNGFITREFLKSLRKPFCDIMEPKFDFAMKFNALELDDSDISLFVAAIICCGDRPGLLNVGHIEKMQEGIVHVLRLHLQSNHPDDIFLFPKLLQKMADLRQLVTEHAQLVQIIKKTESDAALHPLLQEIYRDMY

[2] = molecular target: T2, PPARδ (Homo sapiens, UniProt Q03181); assay: cell-based; settings: PPAR-GAL4 chimeric receptors, transiently transfected HEK-293 cells; ia = inactive at 10 μM; read-out: Transactivation activity EC50 PPARδ
T2 sequence (Q03181 171-441 limits assumed): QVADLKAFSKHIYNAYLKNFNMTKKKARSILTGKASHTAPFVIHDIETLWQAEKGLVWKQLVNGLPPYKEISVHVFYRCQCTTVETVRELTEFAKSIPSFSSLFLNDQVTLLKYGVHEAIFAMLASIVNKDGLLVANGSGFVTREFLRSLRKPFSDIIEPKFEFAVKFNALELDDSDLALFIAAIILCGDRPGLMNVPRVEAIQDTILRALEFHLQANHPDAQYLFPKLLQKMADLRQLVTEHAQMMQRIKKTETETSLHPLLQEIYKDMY

[3] = molecular target: T3, PPARγ (Homo sapiens, UniProt P37231); assay: cell-based; settings: PPAR-GAL4 chimeric receptors, transiently transfected HEK-293 cells; ia = inactive at 10 μM; read-out: Transactivation activity EC50 PPARγ
T3 sequence (P37231 238-505 limits assumed): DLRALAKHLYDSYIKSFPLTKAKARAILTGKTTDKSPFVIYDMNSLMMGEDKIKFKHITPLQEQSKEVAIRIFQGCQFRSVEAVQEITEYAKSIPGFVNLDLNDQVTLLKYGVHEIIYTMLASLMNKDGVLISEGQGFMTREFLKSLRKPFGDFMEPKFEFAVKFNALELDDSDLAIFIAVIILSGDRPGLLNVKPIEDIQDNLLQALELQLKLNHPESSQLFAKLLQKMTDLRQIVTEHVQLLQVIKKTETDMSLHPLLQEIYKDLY

[4] = molecular target: T4, PPARδ (Homo sapiens, UniProt Q03181); assay: cell-based; settings: PPAR-GAL4 chimeric receptors, transiently transfected CHO-K1 cells, ia = inactive at 10 μM; for EC50: read-out: Transactivation activity EC50 PPARδ
T4 sequence (Q03181 211-441 limits assumed): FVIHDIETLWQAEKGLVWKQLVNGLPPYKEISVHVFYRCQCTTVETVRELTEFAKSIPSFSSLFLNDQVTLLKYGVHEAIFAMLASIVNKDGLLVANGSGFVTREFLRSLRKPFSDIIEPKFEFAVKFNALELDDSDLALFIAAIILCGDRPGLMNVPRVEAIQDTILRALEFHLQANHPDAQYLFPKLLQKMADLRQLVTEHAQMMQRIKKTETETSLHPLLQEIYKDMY

[5] = molecular target: T5, PPARγ (Homo sapiens, UniProt P37231); assay: cell-based; settings: PPAR-GAL4 chimeric receptors, transiently transfected CHO-K1 cells, ia = inactive at 10 μM; for EC50: read-out: Transactivation activity EC50 PPARγ
T5 sequence (P37231 232-505 limits assumed): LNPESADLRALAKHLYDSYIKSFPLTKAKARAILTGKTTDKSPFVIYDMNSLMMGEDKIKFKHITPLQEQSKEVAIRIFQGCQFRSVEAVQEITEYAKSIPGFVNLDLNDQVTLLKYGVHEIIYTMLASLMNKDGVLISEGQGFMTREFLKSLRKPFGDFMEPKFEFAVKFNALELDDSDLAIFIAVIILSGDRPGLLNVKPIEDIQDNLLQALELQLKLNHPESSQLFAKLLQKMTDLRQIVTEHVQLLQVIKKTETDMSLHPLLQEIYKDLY

[6] = molecular target: T1, PPARα; assay: PPARα-GAL4 chimeric receptor transactivation in CHO-K1 cells; settings: PPAR-GAL4 chimeric receptors, transiently transfected CHO-K1 cells, ia = inactive at 10 μM; for EC50: read-out: Transactivation activity EC50 PPARα

CCC(Cc1ccc(OC)c(CNC(=O)c2ccc(C(F)(F)F)cc2F)c1)C(=O)O (racemic) [Compound 38] was tested, and the EC50 [1] was 10 nM, the EC50 [2] was 24 nM and the EC50 [3] was 2200 nM.

For CCC(Cc1ccc(OC)c(CNC(=O)c2ccc(C(F)(F)F)cc2)c1)C(=O)O (racemic) [Compound 49], the EC50 [1] was 18 nM and the EC50 [2] was 170 nM.

With CCC(Cc1ccc(OC)c(CNC(=O)c2ccc(C(F)(F)F)cc2F)c1)C(=O)O (racemic) [Compound 55] the EC50 [1] was 8.2 nM and the EC50 [2] was 21 nM.

COc1ccc(C(=O)O)cc1C(=O)NCc1ccc(C(F)(F)F)cc1 [Compound 7] was tested, and the “Transactivation activity EC50 PPARδ” value [4] was “ia”, the “Transactivation activity EC50 PPARγ” value [5] was “ia” and the “Transactivation activity EC50 PPARα” value [6] was “ia^(b)”.

With COc1ccc(CC(=O)O)cc1C(=O)NCc1ccc(C(F)(F)F)cc1 [Compound 8] the “Transactivation activity EC50 PPARδ” value [4] was “ia”, the “Transactivation activity EC50 PPARγ” value [5] was “ia” and the “Transactivation activity EC50 PPARα” value [6] was “ia”.

For COc1ccc(CCC(=O)O)cc1C(=O)NCc1ccc(C(F)(F)F)cc1 [Compound 9], the “Transactivation activity EC50 PPARδ” value [4] was “ia”, the “Transactivation activity EC50 PPARγ” value [5] was “ia” and the EC50 [6] was 1300 nM.

COc1ccc(CC(C)C(=O)O)cc1C(=O)NCc1ccc(C(F)(F)F)cc1 (stereo not drawn) [Compound 10] was tested, and the EC50 [4] was 2800 nM, the “Transactivation activity EC50 PPARγ” value [5] was “ia” and the EC50 [6] was 240 nM.

CCC(Cc1ccc(OC)c(C(=O)NCc2ccc(C(F)(F)F)cc2)c1)C(=O)O (stereo not drawn) [Compound 11] gave an EC50 [4] of 3600 nM and an EC50 [6] of 40 nM.

CCCC(Cc1ccc(OC)c(C(=O)NCc2ccc(C(F)(F)F)cc2)c1)C(=O)O (stereo not drawn) [Compound 12] was tested, and the EC50 [4] was 2400 nM, the “Transactivation activity EC50 PPARγ” value [5] was “ia” and the EC50 [6] was 360 nM.

COc1ccc(CC(C(=O)O)C(C)C)cc1C(=O)NCc1ccc(C(F)(F)F)cc1 (stereo not drawn) [Compound 13] was tested, and the “Transactivation activity EC50 PPARδ” value [4] was “ia”, the “Transactivation activity EC50 PPARγ” value [5] was “ia” and the EC50 [6] was 290 nM.

With CCCCC(Cc1ccc(OC)c(C(=O)NCc2ccc(C(F)(F)F)cc2)c1)C(=O)O (stereo not drawn) [Compound 14] the “Transactivation activity EC50 PPARδ” value [4] was “ia”, the EC50 [5] was 2500 nM and the EC50 [6] was 1000 nM.

For COc1ccc(CC(C(=O)O)c2ccccc2)cc1C(=O)NCc1ccc(C(F)(F)F)cc1 (stereo not drawn) [Compound 15], the “Transactivation activity EC50 PPARδ” value [4] was “ia”, the “Transactivation activity EC50 PPARγ” value [5] was “ia” and the “Transactivation activity EC50 PPARα” value [6] was “ia”.

With COc1ccc(CC(OC)C(=O)O)cc1C(=O)NCc1ccc(C(F)(F)F)cc1 (stereo not drawn) [Compound 16] the “Transactivation activity EC50 PPARδ” value [4] was “ia”, the “Transactivation activity EC50 PPARγ” value [5] was “ia” and the EC50 [6] was 230 nM.

CCOC(Cc1ccc(OC)c(C(=O)NCc2ccc(C(F)(F)F)cc2)c1)C(=O)O (stereo not drawn) [Compound 17] gave an EC50 [4] of 3000 nM, an EC50 [5] of 2800 nM and an EC50 [6] of 1600 nM.

In the case of COc1ccc(CC(Oc2ccccc2)C(=O)O)cc1C(=O)NCc1ccc(C(F)(F)F)cc1 (stereo not drawn) [Compound 18], the “Transactivation activity EC50 PPARδ” value [4] is reported as “ia”, the “Transactivation activity EC50 PPARγ” value [5] is reported as “ia” and the “Transactivation activity EC50 PPARα” value [6] is reported as “ia”.

In the case of COc1ccc(CC(C)(C)C(=O)O)cc1C(=O)NCc1ccc(C(F)(F)F)cc1 [Compound 19], the “Transactivation activity EC50 PPARδ” value [4] is reported as “ia”, the “Transactivation activity EC50 PPARγ” value [5] is reported as “ia” and the EC50 [6] is reported as 2900 nM.

CCC(CC)(Cc1ccc(OC)c(C(=O)NCc2ccc(C(F)(F)F)cc2)c1)C(=O)O [Compound 20] was tested, and the “Transactivation activity EC50 PPARδ” value [4] was “ia”, the “Transactivation activity EC50 PPARγ” value [5] was “ia” and the EC50 [6] was 2800 nM.

For COc1ccc(CC(Sc2ccccc2)C(=O)O)cc1C(=O)NCc1ccc(C(F)(F)F)cc1 (stereo not drawn) [Compound 22], the “Transactivation activity EC50 PPARδ” value [4] was “ia”, the “Transactivation activity EC50 PPARγ” value [5] was “ia” and the “Transactivation activity EC50 PPARα” value [6] was “ia”.

COc1ccc(CC(SCc2ccccc2)C(=O)O)cc1C(=O)NCc1ccc(C(F)(F)F)cc1 (stereo not drawn) [Compound 23] was tested, and the “Transactivation activity EC50 PPARδ” value [4] was “ia”, the “Transactivation activity EC50 PPARγ” value [5] was “ia” and the “Transactivation activity EC50 PPARα” value [6] was “ia”.
